Experimental findings from PMC9861386, “N-Heterocyclic Carbene-Iridium Complexes as Photosensitizers for In Vitro Photodynamic Therapy to Trigger Non-Apoptotic Cell Death in Cancer Cells” (Molecules, 2023) are described below.

Data set [1] in a line: Photophysical measurements (emission, quantum yield, lifetime) in CH2Cl2. The class given is physicochemical. To be noted: for τ1 excited-state lifetime: CH2Cl2; for ΦPL emission quantum yield: CH2Cl2, 298 K, references POPOP and quinine sulfate. From the text: All complexes have been photophysically investigated at standard pressure in CH2Cl2 at 298 K. The absorption spectra of complexes 4a to 4g in CH2Cl2 at 298 K are shown in Figure 7. The strong absorption bands below 300 nm correspond to spin-allowed ^1π→π* electronic ligand-centered (LC) transitions. The structureless bands at 300–360 nm are attributed to ppy-to-ppy ^1π→π* […] charge transfer (LLCT) and Ir-to-ppy metal-to-ligand charge transfer (MLCT) transitions. The lowest-lying bands in the visible region can be assigned to both singlet and triplet MLCT transitions. No significant difference in the absorption spectra of complexes 4a to 4g can be found in the CH2Cl2 solution.
The luminescence spectra of complexes 4a to 4f in CH2Cl2 at 298 K are shown in Figure 8 and their photophysical data are summarized in Table 1.
The relative emission quantum yields (ΦPL) of these complexes in CH2Cl2 at room temperature were measured by using POPOP and quinine sulfate in 1 N H2SO4 as standard references (ΦPL = 97% and ΦPL = 54%, respectively). […] In addition, the excited-state lifetimes of complexes 4a to 4d are in the range of 166.4–190.7 ns, indicating the phosphorescence nature of the emissions.
UV/Vis absorption spectra were recorded at RT on solutions contained in quartz cuvettes (optical pathlength 1 cm, Hellma® (HELLMA, Müllheim, Germany)) with a PerkinElmer® (PerkinElmer, Waltham, MA, USA) UV/VIS/NIR spectrophotometer Lambda 950 and a PerkinElmer® detector UV/VIS/NIR Accessory 2D Detector Module.
Fluorescence and phosphorescence emission spectra were obtained with a HORIBA JOBIN YVON (Bensheim, Germany) fluromax-4 and spectrofluorometer.
Luminescence quantum yields were measured according to the method of Demas and Crosby, on solution samples at RT. The quantum yield is defined as: ΦS=ΦR*As/Ar* ηs/ηr^2^2 where ΦS is the quantum yield of the sample, ΦR is the known quantum yield of the reference standard at the area subtended by the emission band (on a wavelength scale) and η is the refractive index of the solvent used for the preparation of the solution. As (related to the sample) and Ar (related to the reference) must be excitation wavelength. Different standards were selected depending on the spectral region of the interest: POPOP in hexane (Φ = 97%) and QUININNE in water (Φ = 54%).
Fluorescence lifetime measurements were performed by an Edinburgh FLS920 spectrofluorometer equipped with a TCC900 card for data acquisition in time-correlated single-photon counting experiments (0.5 ns time resolution) with a D2 lamp and an LDH-P-C-405 pulsed diode laser. The estimated experimental error was 2 nm on the band maximum (5% on the lifetime, 10% on the fluorescence quantum yield).

The subject of data set [2] is PC-3 cells. Kind of data set: Subcellular localization by confocal microscopy with MitoTracker Deep Red. To be noted: 500 nM, 24 h. The data set is classed as cell-based, human. From the text: The intracellular localization of complex 4a was studied by confocal laser scanning microscopy. The treatment of PC-3 (human prostate) cells with complex 4a led to the development of intense fluorescence in the cytoplasm (Figure 9B). Specific subcellular location was investigated by staining the organelles with the specific fluorescent probe MitoTracker Deep Red (Figure 9C). […] However, an accumulation of complex 4a in lysosomes or the endoplasmic reticulum cannot be excluded.
Cell imaging was performed on an LSM 710 NLO-Meta confocal microscope with spectral detection (Zeiss, Göttingen, Germany). Images were taken through a 40×/1.2 W objective. Microscopy imaging experiments were performed with PC-3 cells that were cultured in 6-well plates and on glass slides (180,000 cells per well) for 18 h before incubation with complex 4a at different concentrations (0.25 μM, 0.5 μM and 1 μM) for various times. After 24 h, the MitoTracker deep red probe (Fisher Scientific, Illkirch, France) was incubated on live cells at a final concentration of 200 nM during 15 min at 37 °C in a 5% CO2 humidified incubator and then observed in one pass two channels 440–544 nm for complex 4a (two-photon excitation at 720 nm) and 644–700 nm for MitoTracker (excitation at 633 nm) at the same time. Merged images were generated to evaluate colocalization of the mitochondrial probe with complex 4a. […]

For data set [3], the system named is MCF7/FasR and MCF7/FasR/Bcl-xL cells. Kind of data set: ATP quantification (CellTiter-Glo). The data set is classed as cell-based, human. To be noted: increasing concentration, 458 nm irradiation, 72 h. How it is done:
ATP and glutathione (GSH) contents were measured with the Promega CellTiter-Glo (Cat#G7570) and GSH-Glo (cat#6911) luminescent assays, respectively, according to the manufacturer’s recommendations.
Figure 13 Evaluation of apoptotic biomarkers. MCF7/FasR and MCF7/FasR/Bcl-xL cells were irradiated at 458 nm in presence of the indicated concentration of complex 4a or treated with […] TNFα for 72 h. (A) Cytosolic extracts from MCF7/FasR and MCF7/FasR/Bcl-xL cells were separated by SDS-PAGE and probed with anti-PARP, anti-caspase-7 and anti-caspase-8. Migrations indicated are: full-length PARP p113, cleaved PARP p89, full-length caspase-7 and full-length caspase-8. (B) MTT, ATP and GSH assays were evaluated in duplicate samples. Data are expressed as percent (%) of untreated cells and are the means of 3 independent experiments (***, p < 0.0001, NS, not significant).
(In ATP-based viability assays light output follows the ATP content of the culture.)

Take `CC(C)[n+]1ccn2[c]1[Ir-3]13([c]4ccccc4-c4cccc[n+]41)([c]1ccccc1-c1cccc[n+]13)[c]1n(cc[n+]1C(C)C)C2.F[P-](F)(F)(F)(F)F` [Complex 4a]: in data set [1], the τ1 excited-state lifetime was found to be 191 ns and the “ΦPL emission quantum yield” value stood at 1.2%. For the same compound, the “Pearson colocalization coefficient with MitoTracker Deep Red (mitochondria)” value in data set [2] is reported as 88%. Moreover, the ATP level result in data set [3] is “loss of ATP”.
Regarding `CC(C)C[n+]1ccn2[c]1[Ir-3]13([c]4ccccc4-c4cccc[n+]41)([c]1ccccc1-c1cccc[n+]13)[c]1n(cc[n+]1CC(C)C)C2.F[P-](F)(F)(F)(F)F` [Complex 4b], in data set [1], the τ1 excited-state lifetime was 166 ns and the “ΦPL emission quantum yield” value came to 1.6%.
As to `F[P-](F)(F)(F)(F)F.c1ccc(C[n+]2ccn3[c]2[Ir-3]24([c]5ccccc5-c5cccc[n+]52)([c]2ccccc2-c2cccc[n+]24)[c]2n(cc[n+]2Cc2ccccc2)C3)cc1` [Complex 4c], in data set [1], the τ1 excited-state lifetime is 180 ns and the “ΦPL emission quantum yield” value amounted to 1.6%.
Taken in the same sequence, the figures for `CSc1ccc(-[n+]2ccn3[c]2[Ir-3]24([c]5ccccc5-c5cccc[n+]52)([c]2ccccc2-c2cccc[n+]24)[c]2n(cc[n+]2-c2ccc(SC)cc2)C3)cc1.F[P-](F)(F)(F)(F)F` [Complex 4d] were 167 ns and 1.1%.
